Source: paper PMC10702058, “Phase I dose escalation study and pilot efficacy analysis of LXI-15029, a novel mTOR dual inhibitor, in Chinese subjects with advanced malignant solid tumors” (BMC Cancer, 2023)

Experiment: Phase I dose escalation: safety and tolerability (DLT, MTD, adverse events, NCI-CTCAE 4.03)

CNC(=O)c1cccc(-c2ccc3c(N4C5CCC4COC5)nc(N4CCOC[C@@H]4C)nc3n2)c1 [LXI-15029]
Patients with any TEAE (10 mg BID (n = 3)): 3 (100.0) n (%) | Patients with any TEAE, maximum CTCAE Grade 1 (10 mg BID (n = 3)): 3 (100.0) n (%) | Patients with any TEAE, maximum CTCAE Grade 2 (10 mg BID (n = 3)): 0 n (%) | Patients with any TEAE, maximum CTCAE Grade 3 (10 mg BID (n = 3)): 0 n (%) | ≥ 10% TRAE: ALT increased (10 mg BID (n = 3)): 0 n (%) | ≥ 10% TRAE: AST increased (10 mg BID (n = 3)): 0 n (%) | ≥ 10% TRAE: Decreased appetite (10 mg BID (n = 3)): 1 (33.3) n (%) | ≥ 10% TRAE: Diarrhea (10 mg BID (n = 3)): 0 n (%) | ≥ 10% TRAE: ECG QT prolonged (10 mg BID (n = 3)): 0 n (%) | ≥ 10% TRAE: Fatigue (10 mg BID (n = 3)): 0 n (%) | ≥ 10% TRAE: GGT increased (10 mg BID (n = 3)): 0 n (%) | ≥ 10% TRAE: Hypercholesterolemia (10 mg BID (n = 3)): 0 n (%) | ≥ 10% TRAE: Hypertriglyceridemia (10 mg BID (n = 3)): 0 n (%) | ≥ 10% TRAE: LDL increased (10 mg BID (n = 3)): 0 n (%) | ≥ 10% TRAE: Leukocytopenia (10 mg BID (n = 3)): 0 n (%) | ≥ 10% TRAE: Neutropenia (10 mg BID (n = 3)): 0 n (%) | ≥ 10% TRAE: Sinus bradycardia (10 mg BID (n = 3)): 0 n (%) | Patients with any TEAE (20 mg BID (n = 3)): 3 (100.0) n (%) | Patients with any TEAE, maximum CTCAE Grade 1 (20 mg BID (n = 3)): 2 (66.7) n (%) | Patients with any TEAE, maximum CTCAE Grade 2 (20 mg BID (n = 3)): 1 (33.3) n (%) | Patients with any TEAE, maximum CTCAE Grade 3 (20 mg BID (n = 3)): 0 n (%) | ≥ 10% TRAE: ALT increased (20 mg BID (n = 3)): 1 (33.3) n (%) | ≥ 10% TRAE: AST increased (20 mg BID (n = 3)): 0 n (%) | ≥ 10% TRAE: Decreased appetite (20 mg BID (n = 3)): 0 n (%) | ≥ 10% TRAE: Diarrhea (20 mg BID (n = 3)): 0 n (%) | ≥ 10% TRAE: ECG QT prolonged (20 mg BID (n = 3)): 0 n (%) | ≥ 10% TRAE: Fatigue (20 mg BID (n = 3)): 1 (33.3) n (%) | ≥ 10% TRAE: GGT increased (20 mg BID (n = 3)): 1 (33.3) n (%) | ≥ 10% TRAE: Hypercholesterolemia (20 mg BID (n = 3)): 0 n (%) | ≥ 10% TRAE: Hypertriglyceridemia (20 mg BID (n = 3)): 1 (33.3) n (%) | ≥ 10% TRAE: LDL increased (20 mg BID (n = 3)): 1 (33.3) n (%) | ≥ 10% TRAE: Leukocytopenia (20 mg BID (n = 3)): 1 (33.3) n (%) | ≥ 10% TRAE: Neutropenia (20 mg BID (n = 3)): 0 n (%) | ≥ 10% TRAE: Sinus bradycardia (20 mg BID (n = 3)): 1 (33.3) n (%) | Patients with any TEAE (40 mg BID (n = 3)): 2 (66.7) n (%) | Patients with any TEAE, maximum CTCAE Grade 1 (40 mg BID (n = 3)): 1 (33.3) n (%) | Patients with any TEAE, maximum CTCAE Grade 2 (40 mg BID (n = 3)): 1 (33.3) n (%) | Patients with any TEAE, maximum CTCAE Grade 3 (40 mg BID (n = 3)): 0 n (%) | ≥ 10% TRAE: ALT increased (40 mg BID (n = 3)): 0 n (%) | ≥ 10% TRAE: AST increased (40 mg BID (n = 3)): 0 n (%) | ≥ 10% TRAE: Decreased appetite (40 mg BID (n = 3)): 0 n (%) | ≥ 10% TRAE: Diarrhea (40 mg BID (n = 3)): 0 n (%) | ≥ 10% TRAE: ECG QT prolonged (40 mg BID (n = 3)): 0 n (%) | ≥ 10% TRAE: Fatigue (40 mg BID (n = 3)): 0 n (%) | ≥ 10% TRAE: GGT increased (40 mg BID (n = 3)): 0 n (%) | ≥ 10% TRAE: Hypercholesterolemia (40 mg BID (n = 3)): 0 n (%) | ≥ 10% TRAE: Hypertriglyceridemia (40 mg BID (n = 3)): 1 (33.3) n (%) | ≥ 10% TRAE: LDL increased (40 mg BID (n = 3)): 1 (33.3) n (%) | ≥ 10% TRAE: Leukocytopenia (40 mg BID (n = 3)): 2 (66.7) n (%) | ≥ 10% TRAE: Neutropenia (40 mg BID (n = 3)): 0 n (%) | ≥ 10% TRAE: Sinus bradycardia (40 mg BID (n = 3)): 0 n (%) | Patients with any TEAE (60 mg BID (n = 4)): 3 (75.0) n (%) | Patients with any TEAE, maximum CTCAE Grade 1 (60 mg BID (n = 4)): 1 (25.0) n (%) | Patients with any TEAE, maximum CTCAE Grade 2 (60 mg BID (n = 4)): 2 (50.0) n (%) | Patients with any TEAE, maximum CTCAE Grade 3 (60 mg BID (n = 4)): 0 n (%) | ≥ 10% TRAE: ALT increased (60 mg BID (n = 4)): 1 (25.0) n (%) | ≥ 10% TRAE: AST increased (60 mg BID (n = 4)): 1 (25.0) n (%) | ≥ 10% TRAE: Decreased appetite (60 mg BID (n = 4)): 0 n (%) | ≥ 10% TRAE: Diarrhea (60 mg BID (n = 4)): 2 (50.0) n (%) | ≥ 10% TRAE: ECG QT prolonged (60 mg BID (n = 4)): 2 (50.0) n (%) | ≥ 10% TRAE: Fatigue (60 mg BID (n = 4)): 1 (25.0) n (%) | ≥ 10% TRAE: GGT increased (60 mg BID (n = 4)): 1 (25.0) n (%) | ≥ 10% TRAE: Hypercholesterolemia (60 mg BID (n = 4)): 3 (75.0) n (%) | ≥ 10% TRAE: Hypertriglyceridemia (60 mg BID (n = 4)): 2 (50.0) n (%) | ≥ 10% TRAE: LDL increased (60 mg BID (n = 4)): 1 (25.0) n (%) | ≥ 10% TRAE: Leukocytopenia (60 mg BID (n = 4)): 1 (25.0) n (%) | ≥ 10% TRAE: Neutropenia (60 mg BID (n = 4)): 1 (25.0) n (%) | ≥ 10% TRAE: Sinus bradycardia (60 mg BID (n = 4)): 1 (25.0) n (%) | Patients with any TEAE (80 mg BID (n = 4)): 4 (100.0) n (%) | Patients with any TEAE, maximum CTCAE Grade 1 (80 mg BID (n = 4)): 3 (75.0) n (%) | Patients with any TEAE, maximum CTCAE Grade 2 (80 mg BID (n = 4)): 1 (25.0) n (%) | Patients with any TEAE, maximum CTCAE Grade 3 (80 mg BID (n = 4)): 0 n (%) | ≥ 10% TRAE: ALT increased (80 mg BID (n = 4)): 0 n (%) | ≥ 10% TRAE: AST increased (80 mg BID (n = 4)): 0 n (%) | ≥ 10% TRAE: Decreased appetite (80 mg BID (n = 4)): 1 (25.0) n (%) | ≥ 10% TRAE: Diarrhea (80 mg BID (n = 4)): 2 (50.0) n (%) | ≥ 10% TRAE: ECG QT prolonged (80 mg BID (n = 4)): 1 (25.0) n (%) | ≥ 10% TRAE: Fatigue (80 mg BID (n = 4)): 2 (50.0) n (%) | ≥ 10% TRAE: GGT increased (80 mg BID (n = 4)): 0 n (%)
